Experimental data published in patent US9844534B2, “PKC delta inhibitors for use as therapeutics” (Faller & Williams Technology, LLC, priority 2012, dated 2017).

Key:
PKC delta = PKC delta (Homo sapiens, UniProt Q05655); conditions: cultured cells, given as 'in vivo'; read-out: IC50, inhibition of PKC delta in cultured cells; cited from earlier work
H727 cells [1] = assay: Cytotoxicity assay (LDH release); type: cell-based, human
Description: Briefly, total culture medium was cleared by centrifugation. For assay of released LDH, supernatants were collected.

PKC delta protein = conditions: longer periods of exposure; no effect on levels of other PKC isozymes; cited from earlier work
CNDT 2.5 cells = assay: Cell proliferation assay (MTT/MTS); type: cell-based, human
Description: (§1) Cell Lines: BON1, a human foregut (pancreatic) carcinoid tumor cell line (Parekh et al. 1994) was obtained from Kjell Oberg (Uppsala University, Sweden) through Dr. Evan Vosburgh. H727 cells, derived from a human bronchopulmonary carcinoid tumor (Schuller et al. 1987), were purchased from ATCC. The CNDT 2.5 cell line, initially described as a human midgut carcinoid tumor cell line (Van Buren et al. 2007), was provided by Dr. Lee Ellis, (MD Anderson Cancer Center). The provenance of this cell line is currently under review by the originator. BONI, H727, MCF10 and CNDT 2.5 cells were propagated in 10% FBS (Invitrogen); Dulbecco's Modification of Earle's Media/Hams F-12 50:50 media (Cellgro); 2 mM L-Glutamine (Invitrogen); 200 U Penicillin/ml; 200 μg Streptomycin/ml (Invitrogen); 10 ng/ml Nerve Growth Factor (Invitrogen); 1×MEM Non-Essential Amino Acids (Cellgro); 1×MEM Vitamin Solution (Cellgro); 1 mM Sodium Pyruvate; 0.015 M HEPES buffer (pH7.3) (American Bioanalytical).
(§2) Cell Proliferation Assays—Cell proliferation was assessed using an MTT [3-(4,5-dimethylthiazol-2-yl)-2,5-diphenyltetrazolium bromide] assay (Roche, Mannheim, Germany). The number of viable cells growing in a single well on a 96-well microtiter plate was estimated by adding 10 μl of MTT solution (5 mg/ml in phosphate-buffered saline [PBS]). After 4 h of incubation at 37° C., the stain is diluted with 100 μl of dimethyl sulfoxide. The optical densities are quantified at a test wavelength of 570 nm and a reference wavelength of 690 nm on a multiwell spectrophotometer. In some assays, MTS was used as substrate (Promega, Madison, Wis.), and the absorbance of the product was monitored at 490 nm.

H727 cells [2] = assay: Cell proliferation assay (MTT/MTS); type: cell-based, human
Description: as §1, §2

BON1 cells = assay: Cell proliferation assay (MTT/MTS); type: cell-based, human
Description: as §1, §2

H727 cells [3] = assay: Clonogenic assay; type: cell-based, human; conditions: H727, exposure 6-72 hr, replated without inhibitor
Protocol: Clonogenic Assays: 100,000 cells were seeded on 100 mm dishes 5 with 10 ml media per dish (Li et al. 2004). […] Cells were trypsinized; counted via Trypan Blue Exclusion Method in order to determine the number of live cells in the sample, and 500 live cells were seeded in triplicate onto 6 well plates. Cells were monitored for appropriate colony size and re-fed every three to four days. At Day 17, cells were stained with ethidium bromide (Guda et al. 2007) and counted using UVP LabWorks software.
LDH release assesses cytotoxic damage sufficient to compromise membrane integrity over a relatively short time-span. An alternative method, which assesses lethal, but not necessarily immediate, cumulative damage to the tumor cell is a clonogenic assay. In this assay, tumor cells which remain viable after exposure to the compound are tested for their ability to proliferate sufficiently over time to form colonies of tumor cells. H727 treated with vehicle or a PKC delta inhibitor at sub-optimal concentrations varying durations. After replating of viable cells in media without inhibitor, colony numbers were quantitated over time.

[4] = system: nontumorigenic murine or human cells; conditions: same culture conditions; cited from earlier work
PKC alpha = target: T1, PKC alpha (Homo sapiens, UniProt P17252); assay: PKC kinase activity assay (Omnia Kinase Assay); type: biochemical
T1 construct: purchased Invitrogen
Protocol: PKC Kinase Activity Assays: Assays were carried out using recombinant PKC alpha or PKC gamma, (Invitrogen) and the Omnia® Kinase Assays (Invitrogen) with a “PKC kinase-specific” peptide substrate. Incorporation of a chelation-enhanced fluorophore (CHEF) results in an increase in fluorescence ex360/em485) upon phosphorylation. The kit was used according to the manufacturer's instructions.

Chain of PKC delta (Q05655 whole entry): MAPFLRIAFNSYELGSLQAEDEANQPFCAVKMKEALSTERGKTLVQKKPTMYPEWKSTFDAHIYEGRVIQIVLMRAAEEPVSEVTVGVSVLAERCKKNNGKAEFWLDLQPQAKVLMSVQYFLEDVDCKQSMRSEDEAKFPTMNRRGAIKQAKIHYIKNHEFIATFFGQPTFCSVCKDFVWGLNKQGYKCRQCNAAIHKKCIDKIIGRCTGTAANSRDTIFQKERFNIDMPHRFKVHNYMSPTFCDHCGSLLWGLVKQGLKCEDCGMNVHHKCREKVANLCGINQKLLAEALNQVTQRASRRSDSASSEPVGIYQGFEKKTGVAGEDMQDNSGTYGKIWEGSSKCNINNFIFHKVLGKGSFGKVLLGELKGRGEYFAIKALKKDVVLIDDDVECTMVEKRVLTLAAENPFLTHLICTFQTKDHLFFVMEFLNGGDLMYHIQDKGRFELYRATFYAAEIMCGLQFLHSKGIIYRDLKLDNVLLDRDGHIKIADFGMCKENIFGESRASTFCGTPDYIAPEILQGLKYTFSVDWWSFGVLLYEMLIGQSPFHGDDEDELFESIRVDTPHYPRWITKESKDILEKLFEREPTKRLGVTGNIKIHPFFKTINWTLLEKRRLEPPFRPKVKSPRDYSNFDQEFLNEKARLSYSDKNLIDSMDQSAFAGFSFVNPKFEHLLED

Compound	IC50 (PKC delta)	cytotoxicity as assessed by LDH release (H727 cells [1]; H727, 24, 48 and 72 hours)	LDH release versus vehicle control, significance (H727 cells [1]; H727, p<0.003)	down-regulation of PKC delta protein in cells (PKC delta protein)	reduction in relative cell numbers (CNDT 2.5 cells; CNDT 2.5, by 72 hrs, highest concentrations tested)	growth-inhibitory effect on long-term exposure (CNDT 2.5 cells; CNDT, sub-optimal concentration (10 μM), re-fed with inhibitor after 72 hr)	IC50 (CNDT 2.5 cells; Homo sapiens, CNDT 2.5, by 48 hrs, read-out: IC50, decrease in cell number)	reduction in relative cell numbers (H727 cells [2]; H727, by 72 hrs, highest concentrations tested)	IC50 (H727 cells [2]; Homo sapiens, NCI-H727, H727, by 48 hrs, read-out: IC50, decrease in cell number)	reduction in relative cell numbers (BON1 cells; BON1, by 72 hrs, highest concentrations tested)	growth-inhibitory effect on long-term exposure (BON1 cells; BON1, sub-optimal concentration (10 μM), re-fed with inhibitor after 72 hr)	duration of exposure needed to inhibit proliferation (washout) (BON1 cells; BON1, sub-optimal concentration, inhibitor washed out, growth assessed over next 72 hrs)	IC50 (BON1 cells; Homo sapiens, BON1, by 48 hrs, read-out: IC50, decrease in cell number)	effect on clonogenic capacity versus DMSO control (H727 cells [3])	effect on growth of nontumorigenic cells [4]	IC50 (PKC alpha)	effect on proliferation (CNDT 2.5 cells; CNDT, siRNA knockdown, MTS)	effect on proliferation (BON1 cells; BON1, siRNA knockdown, MTS)
CC(=O)c1c(O)c(C)c(O)c(Cc2c(O)c3c(c(C(=O)/C=C/c4ccccc4)c2O)OC(C)(C)C=C3)c1O [rottlerin]	5 µM	cytotoxicity increasing as a function of time and concentration	reached significance by 24 hr of exposure	significantly down-regulates PKC delta protein	significant reduction in relative cell numbers	growth-inhibitory effects persisted to 168 hr	~5 µM	significant reduction in relative cell numbers	~5 µM	significant reduction in relative cell numbers	growth-inhibitory effects persisted to 168 hr	statistically significant by 24 hr of exposure	~5 µM	reached significance (p=0.0051) at 6 hr of exposure	no significant effect on the growth	> 50 µM	–	–
PKC delta-specific siRNA: siRNA duplexes targeting PKC delta (SEQ ID NO 1 and 2), obtained from Qiagen (chain 1 GAUGAAGGAGGCGCUCAGTT; chain 2 GGCUGAGUUCUGGCUGGACTT; chemistry not given here)	–	–	–	–	–	–	–	–	–	–	–	–	–	–	–	–	profound inhibition of proliferation	profound inhibition of proliferation
